PMC9581421, “Functional analysis of a bitter gustatory receptor highly expressed in the larval maxillary galea of Helicoverpa armigera” (PLoS Genetics, 2022)

Molecular target: T1, Gr180 (Helicoverpa armigera, UniProt Z9OE30KH69)
T1 construct: wild type 411 residues (239 + 172 as printed); seven TM domains predicted
T1 sequence (Z9OE30KH69 1-411): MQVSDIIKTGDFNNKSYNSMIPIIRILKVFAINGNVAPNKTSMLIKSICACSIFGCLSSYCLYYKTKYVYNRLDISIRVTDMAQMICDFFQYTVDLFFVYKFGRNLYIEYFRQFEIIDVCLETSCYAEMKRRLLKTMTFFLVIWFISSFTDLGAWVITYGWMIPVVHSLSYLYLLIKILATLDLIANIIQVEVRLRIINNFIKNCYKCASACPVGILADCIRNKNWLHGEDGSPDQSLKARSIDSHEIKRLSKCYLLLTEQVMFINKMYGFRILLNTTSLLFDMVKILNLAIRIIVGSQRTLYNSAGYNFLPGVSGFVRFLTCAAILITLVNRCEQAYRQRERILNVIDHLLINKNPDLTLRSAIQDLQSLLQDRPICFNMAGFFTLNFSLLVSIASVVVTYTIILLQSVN
Experiment: two-electrode voltage clamp, Xenopus oocytes
Type: cell-based
Details: 10^-2 M coumarin in Ringer solution; holding potential -80 mV; Gr180 expressed alone; agonist

Q: With O=c1ccc2ccccc2o1 [coumarin] as the compound, how does the “average current at 10^-2 M” value read?
A: 241 nA
